Values joined by “and” are separate entries in the source; they are usually repeats but may differ in a detail not shown here. Identical values can stand only once.
Settings: Liquid, Vibrating tube method

CCCCCCC(=O)OCC(COC(=O)CCCCCC)(COC(=O)CCCCCC)COC(=O)CCCCCC [pentaerythritol tetraheptanoate]
Settings | mass density
343.14 K, 22987 kPa | 957 kg/m3
343.14 K, 23023 kPa | 956.9 kg/m3
343.14 K, 23067 kPa | 956.9 kg/m3
343.14 K, 23104 kPa | 956.9 kg/m3
343.14 K, 23148 kPa | 957 kg/m3
343.14 K, 23186 kPa | 957 kg/m3
343.14 K, 23224 kPa | 956.9 kg/m3
343.14 K, 23269 kPa | 957.1 kg/m3
343.14 K, 23308 kPa | 957.1 kg/m3
343.14 K, 23346 kPa | 957.1 kg/m3
343.14 K, 23393 kPa | 957.2 kg/m3
343.14 K, 23433 kPa | 957.2 kg/m3
343.14 K, 23473 kPa | 957.2 kg/m3
343.14 K, 23512 kPa | 957.2 kg/m3
343.14 K, 23551 kPa | 957.3 kg/m3
343.14 K, 23582 kPa | 957.3 kg/m3
343.14 K, 23619 kPa | 957.3 kg/m3
343.14 K, 23650 kPa | 957.2 kg/m3
343.14 K, 23719 kPa | 957.3 kg/m3
343.14 K, 23782 kPa | 957.3 kg/m3
343.14 K, 23820 kPa | 957.3 kg/m3
343.14 K, 23852 kPa | 957.4 kg/m3
343.14 K, 23887 kPa | 957.4 kg/m3
343.14 K, 23919 kPa | 957.4 kg/m3
343.14 K, 23957 kPa | 957.4 kg/m3
343.14 K, 23990 kPa | 957.4 kg/m3
343.14 K, 24022 kPa | 957.6 kg/m3
343.14 K, 24061 kPa | 957.7 kg/m3
343.14 K, 24094 kPa | 957.5 kg/m3
343.14 K, 24160 kPa | 957.5 kg/m3
343.14 K, 24588 kPa | 957.9 kg/m3
343.14 K, 24654 kPa | 957.9 kg/m3
343.14 K, 24695 kPa | 958 kg/m3
343.14 K, 24730 kPa | 958.1 kg/m3
343.14 K, 24765 kPa | 958 kg/m3
343.14 K, 24806 kPa | 958 kg/m3
343.14 K, 24840 kPa | 958.1 kg/m3
343.14 K, 25030 kPa | 958.1 kg/m3
343.14 K, 25067 kPa | 958.2 kg/m3
343.14 K, 25103 kPa | 958.2 kg/m3
343.14 K, 25183 kPa | 958.1 kg/m3
343.14 K, 25215 kPa | 958.2 kg/m3
343.14 K, 25436 kPa | 958.5 kg/m3
343.14 K, 25465 kPa | 958.5 kg/m3
343.14 K, 25501 kPa | 958.5 kg/m3
343.14 K, 26973 kPa | 959.4 kg/m3
343.14 K, 27040 kPa | 959.4 kg/m3
343.14 K, 27491 kPa | 959.6 kg/m3
343.14 K, 27527 kPa | 959.7 kg/m3
343.14 K, 27558 kPa | 959.9 kg/m3
343.14 K, 27645 kPa | 960 kg/m3
343.14 K, 27672 kPa | 959.9 kg/m3
343.14 K, 27705 kPa | 959.9 kg/m3
343.14 K, 27733 kPa | 959.9 kg/m3
343.14 K, 27761 kPa | 959.9 kg/m3
343.14 K, 27793 kPa | 959.9 kg/m3
343.14 K, 27821 kPa | 959.9 kg/m3
343.14 K, 27849 kPa | 960 kg/m3
343.14 K, 27937 kPa | 960.1 kg/m3
343.14 K, 27971 kPa | 960.1 kg/m3
343.14 K, 27998 kPa | 960 kg/m3
343.14 K, 28026 kPa | 960 kg/m3
343.14 K, 28060 kPa | 960 kg/m3
343.14 K, 28670 kPa | 960.5 kg/m3
343.14 K, 28700 kPa | 960.4 kg/m3
343.14 K, 29403 kPa | 960.9 kg/m3
343.14 K, 33157 kPa | 963.2 kg/m3
343.14 K, 33197 kPa | 963.3 kg/m3
343.14 K, 33238 kPa | 963.2 kg/m3
343.14 K, 33290 kPa | 963.2 kg/m3
343.14 K, 33322 kPa | 963.3 kg/m3
343.14 K, 33371 kPa | 963.3 kg/m3
343.14 K, 33412 kPa | 963.3 kg/m3
343.14 K, 33461 kPa | 963.4 kg/m3
343.14 K, 33503 kPa | 963.4 kg/m3
343.14 K, 33545 kPa | 963.5 kg/m3
343.14 K, 33586 kPa | 963.4 kg/m3
343.14 K, 33637 kPa | 963.5 kg/m3
343.14 K, 33678 kPa | 963.7 kg/m3
343.14 K, 33906 kPa | 963.6 kg/m3
343.15 K, 100.4 kPa | 940.6 kg/m3
343.15 K, 100.5 kPa | 940.6 kg/m3
343.15 K, 100.7 kPa | 940.6 kg/m3
343.15 K, 100.9 kPa | 940.6 kg/m3
343.15 K, 102.6 kPa | 940.6 kg/m3
343.15 K, 106.3 kPa | 940.6 kg/m3
343.15 K, 108.5 kPa | 940.6 kg/m3
343.15 K, 111.8 kPa | 940.7 kg/m3
343.15 K, 116.3 kPa | 940.7 kg/m3
343.15 K, 119.8 kPa | 940.6 kg/m3
343.15 K, 124 kPa | 940.5 kg/m3
343.15 K, 126.8 kPa | 940.6 kg/m3
343.15 K, 129.2 kPa | 940.5 kg/m3
343.15 K, 131.6 kPa | 940.6 kg/m3
343.15 K, 133.4 kPa | 940.7 kg/m3
343.15 K, 134.8 kPa | 940.8 kg/m3
343.15 K, 135.3 kPa | 940.7 kg/m3
343.15 K, 136.2 kPa | 940.6 kg/m3
343.15 K, 136.7 kPa | 940.6 kg/m3
343.15 K, 137.7 kPa | 940.7 kg/m3
343.15 K, 138.6 kPa | 940.7 kg/m3
343.15 K, 139.6 kPa | 940.7 kg/m3
343.15 K, 140.5 kPa | 940.6 kg/m3
343.15 K, 140.7 kPa | 940.8 kg/m3 and 940.7 kg/m3
343.15 K, 140.8 kPa | 940.6 kg/m3
343.15 K, 141 kPa | 940.7 kg/m3
343.15 K, 141.2 kPa | 940.6 kg/m3
343.15 K, 141.5 kPa | 940.6 kg/m3
343.15 K, 141.9 kPa | 940.7 kg/m3
343.15 K, 142.4 kPa | 940.7 kg/m3
343.15 K, 142.9 kPa | 940.6 kg/m3
343.15 K, 143.1 kPa | 940.6 kg/m3 and 940.7 kg/m3
